Our source for the EC50 values is patent US20200055817A1 (AbbVie Deutschland GmbH & Co. KG, priority 2016, published 2020).

One may read the EC50 as the midpoint of the concentration-response curve.

Each structure is given as a SMILES string. Structures can show the parent of a compound that is named as a salt.

What all share (format): cell-based
In experiment [1] the target is T1, human EDG8 (S1PR5) receptor (Homo sapiens, UniProt Q9H228).
T1 construct: carries the transgenes human EDG8 (S1PR5) receptor (Acession number NP_110387.1); expressed in transfected cells; host or cells: CHO-A21-EDG8#12 (CHO clone co-expressing mitochondrial aequorin and chimaeric Gaqi5)
T1 sequence (Q9H228 whole entry): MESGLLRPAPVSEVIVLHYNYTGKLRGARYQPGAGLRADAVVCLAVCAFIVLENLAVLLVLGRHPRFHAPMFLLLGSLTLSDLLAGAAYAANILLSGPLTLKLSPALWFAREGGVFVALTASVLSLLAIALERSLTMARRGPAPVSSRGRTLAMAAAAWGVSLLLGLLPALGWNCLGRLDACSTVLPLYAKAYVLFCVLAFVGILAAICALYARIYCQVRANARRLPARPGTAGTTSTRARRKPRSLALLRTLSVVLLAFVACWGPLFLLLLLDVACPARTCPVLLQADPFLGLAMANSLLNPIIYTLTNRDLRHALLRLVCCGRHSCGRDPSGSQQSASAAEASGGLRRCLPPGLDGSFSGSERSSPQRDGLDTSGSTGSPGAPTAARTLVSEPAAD
The experiment in a line: Aequorin assay, agonist potency, CHO-A21-EDG8#12 cells. To be noted: agonist mode, aequorin luminescence; read-out: S1P5 EC50 range #. The essentials: (§1)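 CHO cells coexpressing receptor, mitochondrial aequorin and Gαqi5 (S1P3 pool: GNA16) were loaded overnight at RT with 5 μM coelenterazine h in 0.1% fatty-acid-free BSA buffer. Cells were injected onto compound, luminescence recorded 90 s and integrated, normalised to digitonin or 20 μM ATP; sigmoidal fit.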

The target in experiment [2] is T2, S1P4 (Homo sapiens, UniProt O95977).
T2 sequence (O95977 1-384): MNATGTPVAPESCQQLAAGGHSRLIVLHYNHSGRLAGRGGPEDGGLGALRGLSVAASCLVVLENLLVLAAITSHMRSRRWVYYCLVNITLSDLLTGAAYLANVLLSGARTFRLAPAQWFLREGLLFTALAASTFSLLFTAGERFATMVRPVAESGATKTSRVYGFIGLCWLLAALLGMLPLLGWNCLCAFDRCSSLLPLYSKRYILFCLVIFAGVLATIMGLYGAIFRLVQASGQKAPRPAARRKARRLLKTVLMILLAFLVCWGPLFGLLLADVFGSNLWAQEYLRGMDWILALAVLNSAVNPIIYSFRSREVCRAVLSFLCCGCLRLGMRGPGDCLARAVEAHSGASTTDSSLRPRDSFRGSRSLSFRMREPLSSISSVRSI
As to the kind of experiment: Aequorin assay, agonist potency, S1P4. The note with it: agonist mode, aequorin luminescence. The essentials:
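Aequorin luminescence read over 90 s after adding coelenterazine h–loaded cells (5 μM, overnight, RT) to test compound in phenol red-free DMEM/F12 buffer containing 0.1% fatty acid-free BSA. Responses integrated, scaled to the 100% signal from 100 μM digitonin or 20 μM ATP, and fitted to a sigmoidal dose-response model.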

Experiment [3] concerns the target T3, human EDG3 (S1PR3) receptor (Homo sapiens, UniProt Q99500).
T3 construct: expressed in transfected cells; host or cells: CHO-A2-S1P3 Mix (CHO cell pool co-expressing mitochondrial aequorin and GNA16)
The experiment in a line: Aequorin assay, agonist potency, CHO-A2-S1P3 Mix cells. To be noted: agonist mode, aequorin luminescence. On the procedure:
Agonistic activity was measured as described below.
Cell clone CHO-A21-Edg1#17 carries the transgenes human EDG1 (S1PR1) receptor (Accession number NP_001391.2), mitochondrially targeted Aequorin (active part corresponds to accession number 1SL8_A) and chimaeric Gaqi5=Gaq modified with the 5 C-terminal amino-acids replaced with those of the Gai protein (DCGLF). CHO-A2-S1P3 Mix is a cell pool ectopically expressing human EDG3 (S1PR3) receptor (Accession number NP_005217.2) mitochondrially targeted Aequorin (active part has a sequence similar to accession number AY601106.1) and GNA16 (Accession number NP_002059.3). Cell clone CHO-A21-EDG8#12 carries the transgenes human EDG8 (S1PR5) receptor (Acession number NP_110387.1), mitochondrially expressed Aequorin (active part corresponds to accession number 1SL8_A) and chimaeric Gaqi5 (Gaq modified to present the 5 last amino-acids of the Gai protein “DCGLF”; see above). Cells are grown to mid-log phase in culture medium (HAM's F12, 10% FBS, 100 IU/mL penicillin, 100 μg/mL streptomycin, 250 μg/mL Zeocin, 400 μg/mL G418). 18 hours prior to frozen cells preparation, the medium is changed to remove the antibiotics.
18 hours prior to the test, vials of frozen cells are quickly thawed in a 37° C. water bath, cells are recovered by centrifugation and resuspended in assay buffer (DMEM/HAM's F12 with HEPES, without phenol red+0.1% fatty acid-free BSA). Cells are gently agitated in suspension overnight at RT in presence of 5 μM of Coelenterazine h (Molecular Probes). On the day of the test, cells are diluted to their final working concentrations in assay buffer and agitated in suspension for 1 h at RT. Cells are then placed in the luminescence reader (Hamamatsu Functional Drug Screening System 6000, FDSS6000). During cells incubation, compounds are prepared in 100% DMSO, and subsequently diluted in assay buffer. Compounds are then dispensed in the assay plate (black, clear-bottom, 384-well plate). After binding of agonists to the human S1P receptor the intracellular calcium concentration increases and binding of calcium to the Aequorin/Coelenterazine complex leads to an oxidation reaction of coelenterazine, which results in the production of Aequorin, coelenteramide, CO2 and light (Dmax 469 nm). The luminescent response is dependent on the agonist concentration. For agonist testing, 30 μL of cell suspension are injected on 30 μL of test compound or reference agonist in the assay plate. The resulting emission of light is recorded for 90 seconds using the FDSS6000. Dose response curves with the reference compounds are performed before testing the compounds. S1P is the reference agonist and JTE-013 the reference antagonist for S1P2.
Luminescence data are integrated over the reading interval for agonist and antagonist modes. To standardize the emission of recorded light (determination of the “100% signal”) across plates and across different experiments, some of the wells contain 100 μM digitonin or a saturating concentration of ATP (20 μM). Plates also contain the reference agonist at a concentration equivalent to the EC80 obtained during the test validation and the EC100. Dose-response data from test compounds were analyzed with XLfit (IDBS) software using nonlinear regression applied to a sigmoidal dose-response model and the following equation: […]

Experiment [4] addresses T4, human EDG1 (S1PR1) receptor (Homo sapiens, UniProt P21453).
T4 construct: expressed in transfected cells; host or cells: CHO-A21-Edg1#17 (CHO clone co-expressing mitochondrial aequorin and chimaeric Gaqi5)
The experiment in a line: Aequorin assay, agonist potency, CHO-A21-Edg1#17 cells. The note with it: agonist mode, aequorin luminescence; read-out: S1P1 EC50. The essentials:
as §1

T3 sequence (Q99500 whole entry): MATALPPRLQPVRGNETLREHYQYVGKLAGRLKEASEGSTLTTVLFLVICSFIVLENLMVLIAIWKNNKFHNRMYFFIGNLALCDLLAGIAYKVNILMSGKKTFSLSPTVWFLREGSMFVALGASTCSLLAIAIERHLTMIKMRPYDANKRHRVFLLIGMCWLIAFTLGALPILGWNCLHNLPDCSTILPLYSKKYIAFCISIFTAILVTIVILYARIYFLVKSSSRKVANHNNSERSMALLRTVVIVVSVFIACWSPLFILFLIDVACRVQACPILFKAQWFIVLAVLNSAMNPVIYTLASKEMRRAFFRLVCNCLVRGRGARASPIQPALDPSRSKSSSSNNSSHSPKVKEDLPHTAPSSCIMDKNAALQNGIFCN
T4 sequence (P21453 whole entry): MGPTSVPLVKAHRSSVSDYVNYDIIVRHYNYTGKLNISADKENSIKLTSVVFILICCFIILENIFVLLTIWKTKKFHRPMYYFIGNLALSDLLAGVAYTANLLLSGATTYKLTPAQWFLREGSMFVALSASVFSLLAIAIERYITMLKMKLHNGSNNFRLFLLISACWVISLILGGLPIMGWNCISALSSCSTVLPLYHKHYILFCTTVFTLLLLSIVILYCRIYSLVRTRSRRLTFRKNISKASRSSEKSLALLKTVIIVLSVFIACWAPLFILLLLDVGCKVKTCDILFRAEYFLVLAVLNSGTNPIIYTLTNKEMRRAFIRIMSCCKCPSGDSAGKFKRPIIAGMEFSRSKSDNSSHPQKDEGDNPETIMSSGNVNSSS

As to `O=C(O)CN1CC2(Cc3ccc(OCCc4c(Cl)cccc4Cl)cc3C2)C1` [Example 63, 2-(5′-(2,6-dichlorophenethoxy)-1′,3′-dihydrospiro[azetidine-3,2′-inden]-1-yl)acetic acid], the EC50 in experiment [1] was not above 10 nM; in experiment [2] it was less than 1000 nM; in experiment [3] it was more than 1000 nM; in experiment [4], more than 1000 nM.

Turning to `O=C(O)C1(CN2CC3(Cc4ccc(OCc5c(Cl)cccc5Cl)cc4C3)C2)CC1` [Example 46, 1-((5′-((2,6-dichlorobenzyl)oxy)-1′,3′-dihydrospiro[azetidine-3,2′-inden]-1-yl)methyl)cyclopropanecarboxylic acid], the EC50 was not above 10 nM in experiment [1], less than 1000 nM in experiment [2], more than 1000 nM in experiment [3] and more than 1000 nM in experiment [4].

`O=C(O)CN1CC2(Cc3ccc(OCc4ccc(Cl)cc4)cc3C2)C1` [Example 11, 2-(5′-((4-chlorobenzyl)oxy)-1′,3′-dihydrospiro[azetidine-3,2′-inden]-1-yl)acetic acid]: the EC50 is 1000 to 10000 nM in experiment [1], less than 1000 nM in experiment [2], more than 1000 nM in experiment [3] and more than 1000 nM in experiment [4].

For the compound `O=C(O)C1(CN2CC3(Cc4ccc(OCc5cccc(Cl)c5)cc4C3)C2)CC1` [Example 45, 1-((5′-((3-chlorobenzyl)oxy)-1′,3′-dihydrospiro[azetidine-3,2′-inden]-1-yl)methyl)cyclopropanecarboxylic acid], the EC50 was 10 to 100 nM in experiment [1], less than 1000 nM in experiment [2], more than 1000 nM in experiment [3] and more than 1000 nM in experiment [4].

As for `O=C(O)CCN1CC2(Cc3ccc(OCc4ccccc4)cc3C2)C1` [Example 6, 3-(5′-(benzyloxy)-1′,3′-dihydrospiro[azetidine-3,2′-inden]-1-yl)propanoic acid hydrochloride], the EC50 was 1000 to 10000 nM in experiment [1], less than 1000 nM in experiment [2], more than 1000 nM in experiment [3] and more than 1000 nM in experiment [4].

Consider `O=C(O)C1(CN2CC3(Cc4ccc(OCc5ccccc5)cc4C3)C2)CC1` [Example 29, 1-((5′-(benzyloxy)-1′,3′-dihydrospiro[azetidine-3,2′-inden]-1-yl)methyl)cyclopropanecarboxylic acid], for which the EC50 is 1000 to 10000 nM in experiment [1], more than 1000 nM in experiment [2], more than 1000 nM in experiment [3] and more than 1000 nM in experiment [4].

`O=C(O)C1(CN2CC3(Cc4ccc(OCc5c(Cl)cccc5C5CC5)cc4C3)C2)CC1` [Example 44, 1-((5′-((2-chloro-6-cyclopropylbenzyl)oxy)-1′,3′-dihydrospiro[azetidine-3,2′-inden]-1-yl)methyl)cyclopropanecarboxylic acid compound with acetic acid (1:1)]: the EC50 in experiment [1] is not above 10 nM; in experiment [2] it was less than 1000 nM; in experiment [3] it was more than 1000 nM; in experiment [4], more than 1000 nM.

For `CCc1cccc(Cl)c1COc1ccc2c(c1)CC1(C2)CN(CC(=O)O)C1` [Example 24, 2,2,2-trifluoroacetic acid compound with 2-(5′-((2-chloro-6-ethylbenzyl)oxy)-1′,3′-dihydrospiro[azetidine-3,2′-inden]-1-yl)acetic acid (1:1)], the EC50 in experiment [1] is not above 10 nM; in experiment [2], less than 1000 nM; in experiment [3], more than 1000 nM; in experiment [4] it was more than 1000 nM.

Regarding `CCc1cccc(Cl)c1COc1ccc2c(c1)CC1(C2)CN(CC(C)CC(=O)O)C1` (centres unmarked) [Example 64, 4-(5′-((2-chloro-6-ethylbenzyl)oxy)-1′,3′-dihydrospiro[azetidine-3,2′-inden]-1-yl)-3-methylbutanoic acid], the 50% effective concentration (EC50) in experiment [1] was not above 10 nM; in experiment [2] it was less than 1000 nM; in experiment [3], more than 1000 nM.

As to `O=C(O)C1CC(N2CC3(Cc4ccc(OCc5c(F)cccc5C5CC5)cc4C3)C2)C1` (centres unmarked) [Example 87, 3-(5′-((2-cyclopropyl-6-fluorobenzyl)oxy)-1′,3′-dihydrospiro[azetidine-3,2′-inden]-1-yl)cyclobutanecarboxylic acid], the EC50 in experiment [1] is not above 10 nM; in experiment [2] it was less than 1000 nM; in experiment [4], more than 1000 nM.

For the compound `CC1CCC(C#Cc2ccc3c(c2)CC2(C3)CN(CC3(C(=O)O)CC3)C2)CC1` (mixture of isomers) [Example 115, 1-((5′-((4-methylcyclohexyl)ethynyl)-1′,3′-dihydrospiro[azetidine-3,2′-inden]-1-yl)methyl)cyclopropanecarboxylic acid], the EC50 is not above 10 nM in experiment [1], less than 1000 nM in experiment [2] and more than 1000 nM in experiment [4].

Consider `O=C(O)C1(CN2CC3(Cc4ccc(OCc5ccc(Cl)cc5Cl)cc4C3)C2)CC1` [Example 38, 1-((5′-((2,4-dichlorobenzyl)oxy)-1′,3′-dihydrospiro[azetidine-3,2′-inden]-1-yl)methyl)cyclopropanecarboxylic acid], for which the EC50 was 1000 to 10000 nM in experiment [1], less than 1000 nM in experiment [2] and more than 1000 nM in experiment [4].

Consider `O=C(O)C1CC(N2CC3(Cc4ccc(OCc5ccc(OCC6CC6)cc5)cc4C3)C2)C1` (centres unmarked) [Example 84, 3-(5′-((4-(cyclopropylmethoxy)benzyl)oxy)-1′,3′-dihydrospiro[azetidine-3,2′-inden]-1-yl)cyclobutanecarboxylic acid], for which the EC50 in experiment [1] was 1000 to 10000 nM; in experiment [2], more than 1000 nM; in experiment [4], more than 1000 nM.

As to `O=C(O)C1(CN2CC3(Cc4ccc(-c5ccc(OCc6ccccc6)cc5)cc4C3)C2)CC1` [Example 53, 1-((5′-(4-(benzyloxy)phenyl)-1′,3′-dihydrospiro[azetidine-3,2′-inden]-1-yl)methyl)cyclopropanecarboxylic acid], the results for the EC50 in experiment [1], in experiment [2] and in experiment [4] were 100 to 1000 nM, less than 1000 nM and more than 1000 nM, respectively.

Turning to `O=C(O)C1(CN2CC3(Cc4ccc(OCc5ccc(Cl)cc5)cc4C3)C2)CC1` [Example 33, 1-((5′-((4-chlorobenzyl)oxy)-1′,3′-dihydrospiro[azetidine-3,2′-inden]-1-yl)methyl)cyclopropanecarboxylic acid], the concentration for a half-maximal effect (EC50) in experiment [1] was 1000 to 10000 nM; in experiment [2] it was less than 1000 nM; in experiment [4], more than 1000 nM.

In the case of `O=C(O)CN1CC2(Cc3ccc(C#Cc4ccc(Cl)cc4)cc3O2)C1` [Example 149, 2-(6′-((4-chlorophenyl)ethynyl)-3′H-spiro[azetidine-3,2′-benzofuran]-1-yl)acetic acid], the EC50 in experiment [1] was 1000 to 10000 nM; in experiment [2], more than 1000 nM; in experiment [4], more than 1000 nM.
